# Measured values published in patent US20090170827A1, “Acid Addition Salt of Dihydropyridine Derivative” (Daiichi Sankyo Company , Limited, priority 2005, published 2009).
# Tests used:
# [1] = Elution test (JP paddle method, pH 1.2); format: physicochemical; details: for Elution rate: pH 1.2, 900 ml, paddle 250 rpm, 100 mg equivalent/capsule
# Experimental: A test was carried out using one gelatin capsule filled with the test compound (100 mg equivalent/capsule) and 900 ml of the disintegration test first solution (The Japanese Pharmacopoeia Fourteenth Edition, pH 1.2) as a test solution according to the elution test second method (The Japanese Pharmacopoeia Fourteenth Edition, paddle method) at 250 revolutions per minute. A sinker (The Japanese Pharmacopoeia Fourteenth Edition elution test method) was used for preventing flotation of the gelatin capsule. Five, 10, 15, 20, 30, 45, 60, 75, 90, 105 and 120 minutes after the start of the elution test, about 20 ml of the test solution was filtered through a filter having a pore size of 10 μm (manufactured by VARIAN, Full Flow Filters 10 μm) and directly fed into a flow cell (optical path length: 0.5 cm) in a circulating system. The absorbance was measured by a photodiode array spectrophotometer (HP 8452A). The absorbance of the compound (I) in each test solution at the time of collection of the test solution was compared with the absorbance of the following standard solution to measure the concentration of the compound (I) in the test solution.
# The standard solution was prepared as follows. About 28 mg of the compound (I) was precisely weighed and added to a 500 ml volumetric flask. Five ml of ethanol (99.5%, special grade reagent) was added to the flask and the compound (I) was dissolved while providing ultrasonic stimulation as necessary. The disintegration test first solution was added to make the volume exactly 500 ml. The resulting solution was provided as the standard solution.
# The elution test system is shown below.
# Elution test device: DT-600 (manufactured by JASCO)
# Ultraviolet visible spectrophotometer: HP 8452A Diodearray UV-Visible Spectrophotometer (manufactured by Hewlett Packard; now Agilent Technologies)
# Cell positioner: HP 89075C Multicell Transport (manufactured by Hewlett Packard)
# Delivery pump: HP 89092A Multichannel Pump (manufactured by Hewlett Packard)
# Elution test software: Hewlett Packard Dissolution Testing Software, Revision 03.01 (manufactured by Hewlett Packard)
# Analysis wavelength: 254 to 258 nm
# Control wavelength: 322 to 326 nm
# Optical path length of quartz cell: 0.5 cm
# Thermal stability test = format: physicochemical
# Experimental: The test compound was placed in a glass bottle and allowed to stand under the following conditions (1) and (2). After a certain period of time had elapsed, the residual rate of the active ingredient [compound (I)] in the test compound was measured by high performance liquid chromatography.
# (1): Closed state, 60° C.;
# (2): Non-closed state, 40° C., humidity 75%.
# The measurement conditions in high performance liquid chromatography are as follows.
# Column: L-column ODS [4.6 mm×250 mm, manufactured by Chemicals Evaluation and Research Institute, Japan]
# Mobile layer: acetonitrile/22 mM potassium dihydrogenphosphate buffer/methanol=455/350/195 (V/V/V) (adjusted to pH 5.5 by phosphoric acid)
# (§1) Column temperature: 40° C.
# Detection wavelength: 220 nm
# The residual rate (%) was calculated by the following formula.
# The residual rate (%)=[1−(sum of peak area percentages of impurities and decomposed products)]×100
# [2] = Absorbability test in dog; format: in vivo, dog (male beagle); details: for Cmax / AUC(0-t): fasted male beagle, tetragastrin-treated, oral gelatin capsule 100 mg/body, plasma; for AUC(0-t): read-out: AUC0-24 h
# Experimental: Tetragastrin (6 μg/kg) was intramuscularly injected to the posterior region of thigh of a fasted male beagle (body weight: about 10 kg, n=4) to make the intragastric pH acidic 30 minutes before, immediately before and 30 minutes after administration of the test compound. The test compound was encapsulated in gelatin capsules at a dose of 100 mg/body and orally administered. About 3 ml of blood was collected from the median antebrachial vein using a heparin-treated glass syringe 0.5, 1, 2, 3, 4, 6, 8 and 24 hours after the administration. The collected blood was centrifuged to obtain plasma which was cryopreserved at −20° C. until measurement of the concentration of the test compound. One hundred μl of thawed plasma was mixed with 100 μl of 50% methanol, 800 μl of purified water, 100 μl of 0.1 N aqueous hydrochloric acid and 100 μl of an internal standard solution [a solution of the d7-compound (I) in 50% methanol, 50 ng/ml]. The eluate obtained by solid phase extraction using OASIS HLB was evaporated to dryness and then dissolved in 400 μl of 75% methanol. The solution was analyzed by LC/MS/MS.
# A calibration curve was prepared by the same operation as above using 100 μl of dog control plasma without drug administration and 100 μl of a calibration curve standard solution [a solution of the compound (I) in 50% methanol, 0.1-1000 ng/ml].
# The LC/MS/MS analysis conditions are shown below.
# System: API4000 LC/MS/MS System (manufactured by
# Applied Biosystems/MDS SCIEX)
# Ion source: TurboIonSpray
# Turbo heater gas: Air, 650° C., 70 psi
# Nebulizer gas: Air, 70 psi
# Orifice voltage: Compound (I) 106 V • d7-Compound (I) 106 V
# Ion spray voltage: 5500 V
# Collision energy: Compound (I) 35 V • d7-Compound (I) 35 V
# Measurement mode: Positive/MRM
# Monitor ion: Compound (I) m/z 583->167 • d7-Compound (I) m/z 590->167
# System: Agilent 1100 Series (manufactured by Agilent Technologies)
# Column: Inertsil ODS-3 5 μm, 2.1 mm I.D.×150 mm (manufactured by GL Sciences)
# Mobile phase: Methanol/water/difluoroacetic acid (700/300/0.75)
# as §1
# The area under the concentration in plasma-time curve (AUC0-24h) and the maximum concentration in plasma (Cmax) as pharmacokinetic parameters indicative of drug absorbability were calculated from the results obtained according to the aforementioned method using the compound of Example 1 and the compound (I) as test compounds.
Structure (SMILES),Elution rate ([1]; 5 min) [%],Elution rate ([1]; 10 min) [%],Elution rate ([1]; 15 min) [%],Elution rate ([1]; 20 min) [%],Elution rate ([1]; 30 min) [%],Elution rate ([1]; 45 min) [%],Elution rate ([1]; 60 min) [%],Elution rate ([1]; 75 min) [%],Elution rate ([1]; 90 min) [%],Elution rate ([1]; 105 min) [%],Elution rate ([1]; 120 min) [%],Cmax [2] [ng/mL],AUC(0-t) [2] [ng·h/mL],further results
"Br.Br.CC1=C(C(=O)OC(C)C)C(c2cccc([N+](=O)[O-])c2)C(C(=O)OC2CN(C(c3ccccc3)c3ccccc3)C2)=C(N)N1 (single isomer, unassigned) [Example 1, 2-Amino-1,4-dihydro-6-methyl-4-(3-nitrophenyl)-3,5-pyridinedicarboxylic acid 3-(1-diphenylmethylazetidin-3-yl)ester 5-isopropyl ester dihydrobromide]",1.0,1.9,3.3,5.0,9.9,23.5,35.5,40.8,45.1,49.6,52.6,248,2930,"elution properties (in words) ([1]; pH 1.2, compared with free compound (I)): superior to those of the free compound (I); Residual rate of Compound (I) (Thermal stability test; Condition (1): closed state, 60° C., time 0 month): 99.9%; Residual rate of Compound (I) (Thermal stability test; Condition (1): closed state, 60° C., time 1 month): 99.7%; Residual rate of Compound (I) (Thermal stability test; Condition (1): closed state, 60° C., time 3 months): 99.7%; Residual rate of Compound (I) (Thermal stability test; Condition (1): closed state, 60° C., time 6 months): 99.6%; stability (in words) (Thermal stability test; Condition (2): non-closed state, 40° C., humidity 75%): excellent stability; Residual rate of Compound (I) (Thermal stability test; Condition (2): non-closed state, 40° C., humidity 75%, time 0 month): 99.9%; Residual rate of Compound (I) (Thermal stability test; Condition (2): non-closed state, 40° C., humidity 75%, time 1 month): 99.5%; Residual rate of Compound (I) (Thermal stability test; Condition (2): non-closed state, 40° C., humidity 75%, time 3 months): 99.1%; Residual rate of Compound (I) (Thermal stability test; Condition (2): non-closed state, 40° C., humidity 75%, time 6 months): 98.9%; bioavailability and concentration in blood (AUC0-24h and Cmax), in words ([2]; oral, compared with free compound (I)): superior to those of the free compound (I)"
"CC1=C(C(=O)OC(C)C)C(c2cccc([N+](=O)[O-])c2)C(C(=O)OC2CN(C(c3ccccc3)c3ccccc3)C2)=C(N)N1 (stereo not shown) [Compound (I), 2-Amino-1,4-dihydro-6-methyl-4-(3-nitrophenyl)-3,5-pyridinedicarboxylic acid 3-(1-diphenylmethylazetidin-3-yl) ester 5-isopropyl ester, reference compound]",0.5,0.7,1.0,1.3,1.8,2.5,3.1,3.6,4.1,4.5,5.0,178,1810,–
